Results: patent EP0285356A2, “Dopamine-beta-hydroxylase inhibitors” (SMITHKLINE BECKMAN CORPORATION, priority 1987, dated 1988)
Where two headings read alike, the source gives them in different places.

Key:
[1] = molecular target: T1, dopamine-β-hydroxylase (DBH) (Homo sapiens, UniProt P09172); assay: in vitro DBH inhibition, conversion of tyramine to octopamine in the presence of DBH; format: biochemical
T1 sequence (P09172 1-617): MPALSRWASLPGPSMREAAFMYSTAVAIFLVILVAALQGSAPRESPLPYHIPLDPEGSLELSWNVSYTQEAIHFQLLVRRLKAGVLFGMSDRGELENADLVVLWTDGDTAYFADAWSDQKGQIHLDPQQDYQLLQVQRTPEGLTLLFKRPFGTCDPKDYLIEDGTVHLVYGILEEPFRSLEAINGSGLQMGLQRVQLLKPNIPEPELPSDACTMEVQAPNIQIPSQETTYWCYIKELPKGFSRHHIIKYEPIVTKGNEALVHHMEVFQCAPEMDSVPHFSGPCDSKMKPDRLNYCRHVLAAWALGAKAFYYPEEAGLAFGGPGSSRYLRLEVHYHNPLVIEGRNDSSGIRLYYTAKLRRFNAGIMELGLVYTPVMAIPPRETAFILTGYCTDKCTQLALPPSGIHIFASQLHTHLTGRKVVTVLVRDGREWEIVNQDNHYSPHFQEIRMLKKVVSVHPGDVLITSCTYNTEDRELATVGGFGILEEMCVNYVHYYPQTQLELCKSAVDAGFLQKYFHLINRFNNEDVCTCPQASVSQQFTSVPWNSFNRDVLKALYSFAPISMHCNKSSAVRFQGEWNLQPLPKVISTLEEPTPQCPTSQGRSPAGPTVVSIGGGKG
Protocol: Listed in Table I are the compounds of the invention that were tested for in vitro DBH inhibition by a standard procedure for assaying conversion of tyramine to octopamine in the presence of DBH. J. J. Pisano, et al., Biochem. Biophys, Acta, 43, 566-568 (1960). Octopamine was assayed following sodium periodate oxidation to p-hydroxybenzaldehyde by measuring spectrophotometric absorbance at 330 nm. In Table I, inhibition is given in micromolar concentration of compound at which DBH activity was halved (IC₅₀).

[2] = test system: spontaneously hypertensive rats; assay: mean arterial blood pressure in spontaneously hypertensive rats; format: in vivo; conditions: 50 mg/kg intraperitoneally, compared to vehicle-treated controls, approximate
Protocol: Further, spontaneously hypertensive rats were treated with a suspension or solution of 1-(2-furanylmethyl)imidazole-2-thiol at a dose of 50 mg/kg intraperitoneally, and mean arterial blood pressure was monitored for 260 minutes using indwelling cannulae in the tail arteries. […] Maximal blood pressure reduction was approximately 50 to 55 mm Hg.

[3] = concentration of compound at which DBH activity was halved, tyramine to octopamine, absorbance at 330 nm, read-out: DBH IC50

SMILES	IC50 [1, 3] [µM]	time after treatment to significant blood pressure reductions [2] [min]	IC50 [1] [µM]
Sc1nccn1Cc1ccco1 [1-(2-furanylmethyl)imidazole-2-thiol]	56	≤ 30	
Sc1nccn1Cc1ccoc1 [1-(3-furanylmethyl)imidazole-2-thiol]	36		
CCCCc1ccc(C(=O)O)nc1 [fusaric acid, reference compound]			0.8
